Measured values reported in publication PMC12037037 (Proceedings of the National Academy of Sciences of the …, 2025).
“Also recorded” adds a separate entry of the source.

How the values were obtained:
[1] = ADME assays (Eurofins, ChemPartner); assay type: in vitro ADME; settings: overall statement
Experimental: (§1) (1 picture or pasted object on this page, not shown here)
(§2) Comparison Between WT and S242A5.46 psychLight Variants. Activity in WT and S242A5.46 mutant forms of PsychLight was quantified by deriving ligand activity ratios (log(Emax/EC50)). […]
(§3) and (+)-JRT were fit to a log(agonist) vs. response (three parameters) curve. The Emax/EC50 analysis was performed as previously described in detail by others (16):
(§4) Response = Basal + E!"# − Basal where Emax and Basal represent the top and bottom asymptotes of the curve fit, respectively; EC50 represents the concentration that gives a response halfway between Emax and Basal; and Log[A] is the logarithm of the agonist concentration. Then, ligand activity ratios, log(Emax/EC50) were calculated for each test ligand and statistical comparisons made between each other and between genotypes using a two-way ANOVA and significant interaction effects followed by a Šídák's multiple comparisons test.
(§5) ADME and hERG Inhbition Assays. […]
(§6) Briefly, 96 well plates were coated with poly-D-lysine and approximately 15,000 cells/well. […] Images were analyzed using the Simple Neurite Tracer and Sholl analysis plug-ins for ImageJ Fiji (version 1.51N). […] All images were taken and analyzed by an experimenter blinded to treatment conditions.
(§7) Spinogenesis Assays Using Cultured Rat Cortical Neurons. […] Images were analyzed using ImageJ Fiji (version 1.51N). […]

C57BL/6J mice = experiment: Novelty-induced locomotion; assay type: in vivo; settings: 1 mg/kg
[2] = molecular target: T1, human ether-a-go-go related gene (hERG) channels (Homo sapiens, UniProt Q12809); experiment: hERG inhibition assay (Apconix); assay type: biochemical
T1 construct: Apconix
Experimental: as §1, §2, §3, §4, §5, §6, §7

[3] = system: Thy1-EGFP mice, layer 2/3 of the mPFC; experiment: In vivo spinogenesis after chronic corticosterone administration; settings: 24 h, mean ± SEM
male Long Evans rats = experiment: Probabilistic reward task (PRT) under chronic cold-water stress; assay type: in vivo; settings: for Response bias (log b) (Figure 6G): JRT 1 mg/kg
[4] = molecular target: wild type human 5-HT2A receptor (psychLight2, PSYLI2 cells) (Homo sapiens, UniProt P28223); experiment: PsychLight assay, wild type; assay type: cell-based
Chain of wild type human 5-HT2A receptor (psychLight2, PSYLI2 cells) (P28223 with tags, fused parts or gaps): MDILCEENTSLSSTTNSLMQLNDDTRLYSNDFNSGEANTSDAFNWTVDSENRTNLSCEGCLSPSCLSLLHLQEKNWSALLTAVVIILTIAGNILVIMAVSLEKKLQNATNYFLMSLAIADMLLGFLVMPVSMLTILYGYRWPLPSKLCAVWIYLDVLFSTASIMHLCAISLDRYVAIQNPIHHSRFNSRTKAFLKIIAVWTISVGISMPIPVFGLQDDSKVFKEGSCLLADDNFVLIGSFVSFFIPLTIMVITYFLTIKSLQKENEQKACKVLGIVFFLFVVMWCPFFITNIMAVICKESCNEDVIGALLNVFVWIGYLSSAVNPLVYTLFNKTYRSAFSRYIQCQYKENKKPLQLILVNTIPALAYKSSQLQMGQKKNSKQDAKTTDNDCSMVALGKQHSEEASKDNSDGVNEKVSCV
Chain of wild type human 5-HT2A receptor (psychLight2, PSYLI2 cells) (P42212 with tags, fused parts or gaps partner): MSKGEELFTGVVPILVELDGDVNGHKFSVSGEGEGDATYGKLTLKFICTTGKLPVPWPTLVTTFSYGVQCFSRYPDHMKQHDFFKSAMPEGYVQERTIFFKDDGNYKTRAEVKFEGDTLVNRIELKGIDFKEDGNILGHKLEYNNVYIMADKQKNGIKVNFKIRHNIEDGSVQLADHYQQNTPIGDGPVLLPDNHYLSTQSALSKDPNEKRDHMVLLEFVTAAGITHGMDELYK

T1 sequence (Q12809 whole entry): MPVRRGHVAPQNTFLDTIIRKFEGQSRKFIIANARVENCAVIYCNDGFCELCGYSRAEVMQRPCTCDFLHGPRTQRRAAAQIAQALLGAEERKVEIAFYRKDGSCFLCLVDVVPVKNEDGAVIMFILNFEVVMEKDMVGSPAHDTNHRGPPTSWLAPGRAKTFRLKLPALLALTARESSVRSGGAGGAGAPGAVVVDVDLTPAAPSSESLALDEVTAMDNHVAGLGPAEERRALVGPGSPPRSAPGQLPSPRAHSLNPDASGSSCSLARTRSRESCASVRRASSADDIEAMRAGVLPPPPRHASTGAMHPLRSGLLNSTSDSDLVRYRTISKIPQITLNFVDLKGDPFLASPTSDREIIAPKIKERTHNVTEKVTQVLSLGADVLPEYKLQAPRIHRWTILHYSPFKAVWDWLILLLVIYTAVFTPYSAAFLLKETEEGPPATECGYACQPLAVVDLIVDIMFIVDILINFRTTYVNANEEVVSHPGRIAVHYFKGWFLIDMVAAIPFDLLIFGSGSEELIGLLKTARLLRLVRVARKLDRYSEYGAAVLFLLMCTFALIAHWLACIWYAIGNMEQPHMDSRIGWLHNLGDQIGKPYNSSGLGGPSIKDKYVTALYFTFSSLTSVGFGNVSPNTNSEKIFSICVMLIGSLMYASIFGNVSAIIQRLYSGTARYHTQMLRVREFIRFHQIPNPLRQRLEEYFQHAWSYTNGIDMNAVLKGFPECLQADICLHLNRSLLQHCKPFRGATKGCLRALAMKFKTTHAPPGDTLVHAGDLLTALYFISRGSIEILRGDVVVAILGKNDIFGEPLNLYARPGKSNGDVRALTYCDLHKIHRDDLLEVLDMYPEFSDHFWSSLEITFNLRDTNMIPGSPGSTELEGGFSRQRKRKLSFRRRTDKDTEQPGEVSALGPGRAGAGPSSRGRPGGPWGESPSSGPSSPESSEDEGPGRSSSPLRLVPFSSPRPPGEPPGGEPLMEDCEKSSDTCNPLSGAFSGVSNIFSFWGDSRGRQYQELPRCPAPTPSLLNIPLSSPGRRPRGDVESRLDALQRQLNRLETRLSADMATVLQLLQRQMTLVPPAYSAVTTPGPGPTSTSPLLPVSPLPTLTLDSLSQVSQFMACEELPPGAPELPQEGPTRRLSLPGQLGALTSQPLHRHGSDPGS

Question: What does the source list for `CCN(CC)C(=O)[C@@H]1C=C2c3cccc4ccn(c34)C[C@H]2N(C)C1` [(+)-JRT]?
Answer: ADME properties [1]: excellent; Effect on locomotion (C57BL/6J mice; novel arena 30 min): does not impact locomotion; Serotonin syndrome-like responses (C57BL/6J mice; backward walking, forepaw treading, hind limb abduction, low body posture, Straub tail, tremor): does not impact locomotion (SI Appendix, Fig. S10) or produce any serotonin syndrome-like responses; hERG channel inhibition [2]: does not inhibit hERG channels; also recorded: did not inhibit; Dendritic spine density, layer 2/3 mPFC (Table S1, matches Fig. 4N) ([3]; GH (gentle handling) + JRT 1 mg/kg IP, GH VEH 12.17 ± 0.5278): 11.36 ± 0.8451; Dendritic spine density, layer 2/3 mPFC (Table S1, matches Fig. 4N) ([3]; chronic CORT 20 d + JRT 1 mg/kg IP): 10.77 ± 0.5664; Persistence of the effect on response bias following a single dose (male Long Evans rats; 1 mg/kg, continued daily cold-water stress): at least 3 d; Response bias (log b) (Figure 6G) (male Long Evans rats; Day 2, Day 1 0.131 ± 0.082): 0.406 ± 0.069; Response bias (log b) (Figure 6G) (male Long Evans rats; Day 3, Day 1 0.131 ± 0.082): 0.474 ± 0.112; Response bias (log b) (Figure 6G) (male Long Evans rats; Day 11, Day 1 0.131 ± 0.082): 0.290 ± 0.061; Response bias (log b) (Figure 6G) (male Long Evans rats; Day 1 (stressed, before drug) 0.131 ± 0.082): 0.491 ± 0.071; EC50 [4]: 90 nM; Emax ([4]; read-out: psychLight (WT): EMax): 33%
